{"source": "patent US8592603B2", "about": "“Synthesis of 2-(4-aminophenyl) benzothiazole derivatives and use thereof” (Kaohsiung Medical University, priority 2011, dated 2013)", "key": {"BCC cells [1]": {"system": "BCC cells", "experiment": "Assessment of mitochondrial membrane potential (DiOC6)", "assay_type": "cell-based, human", "conditions": "dosages equal to or greater than 2 μM, 1 J/cm^2 UVA (FIG. 5B)", "description": "(A) 6f-UVA induced ROS generation in BCC cells. Histogram of fluorescence vs cell count in BCC cells with various concentrations of 6f-UVA and stained with DCFH-DA. As a control, ROS was measured in the presence of catalase, a H2O2 scavenger. (B) The ΔΨmt of BCC cells after exposure to 6f-UVA. Cells were treated with 0, 2, and 4 μM Formula 6f for 4 h followed by 1 J/cm2 UVA irradiation, then stained with DiOC6 and analyzed immediately by flow cytometry as described under Materials and Methods. The number in M1 indicates the percentage of cells with reduced ΔΨmt. Approximately 10000 cells from each group were analyzed by flow cytometry. (C) Relative ATP levels were calculated as the percentage of the 0 μM level. Similar results were obtained in three independent experiments. *p<0.05, ** p<0.01 as compared with the control.\nBCC cells were cultured in 35-mm dishes and allowed to reach exponential growth for 24 h before treatment. Cells were pretreated with […] Formula 6f for 4 h before 1 J/cm^2 UVA irradiation. The medium was removed and the adherent cells trypsinized. […] The samples were analyzed immediately for fluorescence (FL-1 detector, filter 530/30 nm band pass) on a FACScan flow cytometer (Elite ESP, Beckman Coulter, Brea, Calif.). Histograms were analyzed using Windows Multiple Document interface software (WinMDI)."}, "BCC cells [2]": {"system": "BCC cells", "experiment": "Cell viability by MTT assay after compound and UVA irradiation", "assay_type": "cell-based, human", "conditions": "for viability at 4 µM: Homo sapiens, BCC, light or radiation study, read-out: cell viability compared with untreated controls", "description": "(A) Dose-response curves for compound 6 ftested against BCC cells. Cells were seeded in a 96-well plate at 2500 cells per well and cultivated overnight until cell attachment. 6f-UVA at the indicated concentration was added into the culture media in triplicate and incubated for 4 h before 1 J/cm2 UVA irradiation. Twenty-four hours after irradiation, the MTT reagent was added into each well. The absorbance is directly proportional to the number of living cells. (B) To clarify whether 6-UVA has more cytotoxicity than either UVA irradiation alone or treatment with 6 alone, cells were cultured with or without 4 μM Formula 6f before different dosage of UVA irradiation. *p<0.05, **p<0.01 as compared with the control.\nThe method for UVA irradiation was described in the previous study (Kao, C. S.; Yu, H. S. J. Invest. Dermatol. 1992, 98, 734). For UVA irradiation, a specific UVA lamp emitting a peak wavelength of 365 nm with intensity of 0.75 mW/cm^2 (Vilber Lourmat, Moune La Vallee, Cedex, France) was used. The cultured cells were pretreated with different agents at 4 μM or pretreated with various concentrations (0-4 μM) of Formula 6 for 4 h before UVA irradiation. The cultured cells were rinsed with phosphate-buffered saline (PBS) and then irradiated with 1 J/cm^2 UVA in PBS to avoid the formation of medium-derived toxic photoproducts induced by UV exposure. The doses of irradiation were measured using a UVX radiometer (UVP, San Gabriel, Calif., USA). Immediately after phototreatment, PBS was removed and media were added to the cells. All the following experiments were performed three times in triplicate.\nCell viability was assessed by the MTT assay, a mitochondrial function assay based on the ability of viable cells to reduce the redox indicator MTT to insoluble formazan crystals by mitochondrial dehydrogenase. Briefly, cells were seeded in a 96-well plate at the cell density of 2500 cells/well. After an overnight incubation, the cells were treated with compounds at 4 μM and incubated for 24 h. The medium was then discarded and replaced with 10 μL of MTT dye. Plates were incubated at 37° C. for 2 h. The resulting formazan crystals were solubilized in 100 μL DMSO, and the optical density was read at 540 nm with a microplate reader (MRX-II, Dynex technology, Chantilly, Va.)."}}, "note": "Read-outs that look alike come from different tables or passages of the source."}
{"compound": "Nc1ccc(-c2nc3ccc(C(F)(F)F)cc3s2)cc1", "note": "[Formula 6f, 2-(4-Aminophenyl)-6-trifluoromethylbenzothiazole]", "values": [{"measurement": "melting point", "value": "181 to 183", "unit": "°C"}, {"measurement": "mitochondrial membrane potential (ΔΨmt)", "setting": "BCC cells [1]", "value": "significant decline"}, {"measurement": "cell survival", "setting": "BCC cells [2]; BCC cells, 4 μM for 4 h, 1 J/cm^2 UVA, 24 h after exposure (FIG. 3A)", "value": "below 50%"}, {"measurement": "inhibitory effect on cell viability", "setting": "BCC cells [2]; BCC cells, different concentrations for 4 h, 1 J/cm^2 UVA (FIG. 3A)", "value": "dependent on drug concentration"}, {"measurement": "viability at 4 µM", "setting": "BCC cells [2]; BCC cells, 0.25 J/cm^2 UVA", "value": 71, "unit": "%"}, {"measurement": "viability at 4 µM", "setting": "BCC cells [2]; BCC cells, 0.5 J/cm^2 UVA", "value": 65, "unit": "%"}, {"measurement": "viability at 4 µM", "setting": "BCC cells [2]; BCC cells, 1 J/cm^2 UVA", "value": 45, "unit": "%"}, {"measurement": "cytotoxicity against BCC cells", "setting": "BCC cells [2]; compound alone, without UVA irradiation (FIG. 3B)", "value": "does not have cytotoxicity"}]}
